Assay results from patent US20240018161A1, “MODULATORS OF CYSTIC FIBROSIS TRANSMEMBRANE CONDUCTANCE REGULATOR” (VERTEX PHARMACEUTICALS INCORPORATED, priority 2020, published 2024).
Like-named read-outs stand apart in the source and are kept apart here. Blank lines part the entries; values can stand above or below the compound they belong to.

Tests used:
[1] = 13-membered ring, DMF
[2] = 13-membered ring, DMF; remark: listed apart in the source
[3] = target: T1, CFTR-mediated chloride transport in human intestinal epithelial enteroid cells (Homo sapiens, UniProt P13569); test: Membrane potential dye, Enteroid Assay B; type: cell-based; details: Enteroid Assay B; for EC50: read-out: Ent. B EC50
T1 sequence (P13569 with tags, fused parts or gaps DEL508-508): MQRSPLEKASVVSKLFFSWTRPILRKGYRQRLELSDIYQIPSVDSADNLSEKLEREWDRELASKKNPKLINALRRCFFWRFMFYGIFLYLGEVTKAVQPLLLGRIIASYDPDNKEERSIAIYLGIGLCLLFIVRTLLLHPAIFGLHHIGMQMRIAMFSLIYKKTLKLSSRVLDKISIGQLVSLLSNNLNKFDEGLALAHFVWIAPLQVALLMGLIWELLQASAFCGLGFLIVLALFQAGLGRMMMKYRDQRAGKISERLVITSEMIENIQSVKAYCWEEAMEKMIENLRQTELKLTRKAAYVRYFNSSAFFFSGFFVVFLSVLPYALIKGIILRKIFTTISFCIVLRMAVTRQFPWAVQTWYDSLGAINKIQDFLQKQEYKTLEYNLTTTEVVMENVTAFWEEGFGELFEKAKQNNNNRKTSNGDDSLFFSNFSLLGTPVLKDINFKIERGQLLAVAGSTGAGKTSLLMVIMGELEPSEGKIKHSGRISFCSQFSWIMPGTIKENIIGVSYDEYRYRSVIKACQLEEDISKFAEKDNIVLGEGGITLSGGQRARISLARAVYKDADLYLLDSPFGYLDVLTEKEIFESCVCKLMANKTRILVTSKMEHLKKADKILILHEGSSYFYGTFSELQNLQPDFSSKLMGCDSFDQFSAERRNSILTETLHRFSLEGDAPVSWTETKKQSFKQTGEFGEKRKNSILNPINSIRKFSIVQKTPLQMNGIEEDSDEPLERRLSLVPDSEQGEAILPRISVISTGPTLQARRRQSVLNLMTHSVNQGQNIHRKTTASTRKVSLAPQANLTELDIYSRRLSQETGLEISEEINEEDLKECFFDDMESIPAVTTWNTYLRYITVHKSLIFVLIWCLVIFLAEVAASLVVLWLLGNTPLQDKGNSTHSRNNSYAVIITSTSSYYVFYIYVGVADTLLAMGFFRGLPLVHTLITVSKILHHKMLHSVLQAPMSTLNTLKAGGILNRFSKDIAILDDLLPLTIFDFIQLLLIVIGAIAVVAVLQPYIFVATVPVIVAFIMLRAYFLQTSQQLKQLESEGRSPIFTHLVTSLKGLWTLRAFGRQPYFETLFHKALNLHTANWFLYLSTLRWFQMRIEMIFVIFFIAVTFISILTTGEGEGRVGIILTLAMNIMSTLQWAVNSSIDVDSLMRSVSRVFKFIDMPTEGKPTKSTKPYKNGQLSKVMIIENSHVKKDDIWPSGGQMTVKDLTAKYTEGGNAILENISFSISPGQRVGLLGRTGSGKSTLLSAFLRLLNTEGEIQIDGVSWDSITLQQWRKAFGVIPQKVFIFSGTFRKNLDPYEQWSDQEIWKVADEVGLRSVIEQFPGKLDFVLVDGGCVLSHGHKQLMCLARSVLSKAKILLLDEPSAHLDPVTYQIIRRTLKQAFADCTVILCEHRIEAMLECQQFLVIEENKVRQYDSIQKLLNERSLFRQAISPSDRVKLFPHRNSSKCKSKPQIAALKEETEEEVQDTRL
Outline: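 Human intestinal enteroid cells were loaded for 25 min at room temperature with methyl oxonol membrane-potential dye plus […] (CaCCinh-A01, Chicago Sky Blue). They were then washed into chloride-free gluconate buffer. Chloride transport was triggered by stimulation solution and fluorescence read for 15 min.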

[4] = target: T1, CFTR-mediated chloride transport in human intestinal epithelial enteroid cells; test: Membrane potential dye, Enteroid Assay A; type: cell-based; details: Enteroid Assay A; for EC50: read-out: Ent. A EC50
Outline: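 Membrane potential dye (20 μM methyl oxonol, with 30 μM CaCCinh-A01 and 30 μM Chicago Sky Blue) loaded 25 min at room temperature into ROCK-inhibitor-seeded human enteroid cells. Chloride-free stimulation buffer triggered transport, followed by 15 min fluorescence. % Activity relative to 3 μM/3 μM/300 nM triple-combination control.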

SMILES: Cc1cccc(C)c1-c1cc2nc(n1)NS(=O)(=O)c1cccc(c1)C(=O)N1C(c3ncc(OC(C)C)cn3)CCCC(CC(C)C)C1CO2 (stereo not shown)
ring closure, isolated yield ([1]; from Cc1cccc(C)c1-c1cc(OCC2NC(c3ncc(OC(C)C)cn3)CCCC2CC(C)C)nc(NS(=O)(=O)c2cccc(C(=O)O)c2)n1, amide bond, CDMT/NMM, 14.3 mM, 48.0 h, 2 steps): 41% | ring closure, yield after HPLC ([2]; from Cc1cccc(C)c1-c1cc(OCC2NC(c3ncc(OC(C)C)cn3)CCCC2CC(C)C)nc(NS(=O)(=O)c2cccc(C(=O)O)c2)n1, amide bond, CDMT/NMM, 13.7 mM, 48.0 h, 2 steps): 12%

SMILES: Cc1cccc(C)c1-c1cc2nc(n1)NS(=O)(=O)c1cccc(c1)C(=O)N1CCN(Cc3ccccc3)CC(O2)C1CC(C)C (stereo not shown)
ring closure, isolated yield ([1]; from Cc1cccc(C)c1-c1cc(Cl)nc(NS(=O)(=O)c2cccc(C(=O)N3CCN(Cc4ccccc4)CC(O)C3CC(C)C)c2)n1, snar bond, NaH, 15.6 mM, 25.0 °C, 23.0 h): 21% | ring closure, yield after HPLC ([2]; from Cc1cccc(C)c1-c1cc(Cl)nc(NS(=O)(=O)c2cccc(C(=O)N3CCN(Cc4ccccc4)CC(O)C3CC(C)C)c2)n1, snar bond, NaH, 15.2 mM, 25.0 °C, 24.0 h): 11%

SMILES: Cc1cccc(C)c1-c1cc2nc(n1)NS(=O)(=O)c1cccc(c1)C(=O)N1CCN(C(=O)OC(C)(C)C)[C@H](CC(C)C)[C@H](C1)O2 [Compound 114, tert-Butyl (16S,17R)-12-(2,6-dimethylphenyl)-17-(2-methylpropyl)-2,8,8-trioxo-15-oxa-8λ^6-thia-1,9,11,18,22-pentaazatetracyclo[14.4.1.13,7.110,14]tricosa-3(23),4,6,10(22),11,13-hexaene-18-carboxylate]
ring closure, isolated yield ([1]; from Cc1cccc(C)c1-c1cc(Cl)nc(NS(=O)(=O)c2cccc(C(=O)N3CCN(C(=O)OC(C)(C)C)[C@H](CC(C)C)[C@@H](O)C3)c2)n1, snar bond, NaH, 30.9 mM, 1.67 h): 34% | Ent. A Max Activity (%) [4]: +++ (+++ is >600%) | EC50 [4]: < 1000 nM

SMILES: Cc1cccc(C)c1-c1cc2nc(n1)NS(=O)(=O)c1cccc(c1)C(=O)N1CCN(C(=O)OC(C)(C)C)[C@@H](CC(C)C)[C@@H](C1)O2 [Compound 116, tert-Butyl (16R,17S)-12-(2,6-dimethylphenyl)-17-(2-methylpropyl)-2,8,8-trioxo-15-oxa-8λ^6-thia-1,9,11,18,22-pentaazatetracyclo[14.4.1.13,7.110,14]tricosa-3(23),4,6,10(22),11,13-hexaene-18-carboxylate]
ring closure, isolated yield ([1]; from Cc1cccc(C)c1-c1cc(Cl)nc(NS(=O)(=O)c2cccc(C(=O)N3CCN(C(=O)OC(C)(C)C)[C@@H](CC(C)C)[C@H](O)C3)c2)n1, snar bond, NaH, 31.0 mM, 5.17 h): 36% | Ent. A Max Activity (%) [4]: ++ (++ is 30-60%) | EC50 [4]: < 1000 nM

SMILES: Cc1cccc(C)c1-c1cc2nc(n1)NS(=O)(=O)c1cccc(c1)C(=O)N1C[C@@H](CN(C(=O)OC(C)(C)C)C[C@H]1C(C)C)O2 [Compound 124, tert-Butyl (16S,20R)-12-(2,6-dimethylphenyl)-2,8,8-trioxo-20-(propan-2-yl)-15-oxa-8λ^6-thia-1,9,11,18,22-pentaazatetracyclo[14.4.1.13,7.110,14]tricosa-3(23),4,6,10(22),11,13-hexaene-18-carboxylate]
ring closure, isolated yield ([1]; from Cc1cccc(C)c1-c1cc(Cl)nc(NS(=O)(=O)c2cccc(C(=O)N3C[C@H](O)CN(C(=O)OC(C)(C)C)C[C@H]3C(C)C)c2)n1, snar bond, NaH, 30.5 mM, 3.17 h): 35% | Ent. A Max Activity (%) [4]: +++ (+++ is >600%) | EC50 [4]: < 1000 nM

SMILES: Cc1cccc(C)c1-c1cc2nc(n1)NS(=O)(=O)c1cccc(c1)C(=O)N1C[C@@H](CN(C(=O)OC(C)(C)C)C[C@@H]1CCC(C)C)O2 [Compound 129, tert-Butyl (16S,20S)-12-(2,6-dimethylphenyl)-20-(3-methylbutyl)-2,8,8-trioxo-15-oxa-8λ^6-thia-1,9,11,18,22-pentaazatetracyclo[14.4.1.13,7.110,14]tricosa-3(23),4,6,10(22),11,13-hexaene-18-carboxylate]
ring closure, isolated yield ([1]; from Cc1cccc(C)c1-c1cc(Cl)nc(NS(=O)(=O)c2cccc(C(=O)N3C[C@H](O)CN(C(=O)OC(C)(C)C)C[C@@H]3CCC(C)C)c2)n1, snar bond, NaH, 29.8 mM, 3.67 h): 53% | Ent. A Max Activity (%) [4]: ++ (++ is 30-60%) | EC50 [4]: < 1000 nM

The next lines start with results.

Ent. B Max Activity (%) [3]: ++ (++ is 30-60%) | EC50 [3]: < 1000 nM
SMILES: Cc1cccc(C)c1-c1cc2nc(n1)NS(=O)(=O)c1cccc(c1)C(=O)N1CCc3cc(C(C)(C)C)ccc3C1CO2 (single isomer, unassigned) [Compound 235, 8-tert-butyl-17-(2,6-dimethylphenyl)-14-oxa-21λ^6-thia-3,18,20,27-tetraazapentacyclo[20.3.1.115,19.03,12.06,11]heptacosa-1(26),6(11),7,9,15(27),16,18,22,24-nonaene-2,21,21-trione]
ring closure, isolated yield ([1]; from Cc1cccc(C)c1-c1cc(OCC2NCCc3cc(C(C)(C)C)ccc32)nc(NS(=O)(=O)c2cccc(C(=O)O)c2)n1, amide bond, HATU/Et3N, 16.5 mM, 25.0 °C, 16.0 h): 34%

Ent. A Max Activity (%) [4]: ++ (++ is 30-60%) | EC50 [4]: < 1000 nM
SMILES: Cc1cccc(C)c1-c1cc2nc(n1)NS(=O)(=O)c1cccc(c1)C(=O)N1CCN(C(=O)OC(C)(C)C)[C@H](CC(C)C)[C@@H](C1)O2 [Compound 115, tert-Butyl (16R,17R)-12-(2,6-dimethylphenyl)-17-(2-methylpropyl)-2,8,8-trioxo-15-oxa-8λ^6-thia-1,9,11,18,22-pentaazatetracyclo[14.4.1.13,7.110,14]tricosa-3(23),4,6,10(22),11,13-hexaene-18-carboxylate]
ring closure, isolated yield ([1]; from Cc1cccc(C)c1-c1cc(Cl)nc(NS(=O)(=O)c2cccc(C(=O)N3CCN(C(=O)OC(C)(C)C)[C@H](CC(C)C)[C@H](O)C3)c2)n1, snar bond, NaH, 31.6 mM, 1.67 h): 67%

Ent. A Max Activity (%) [4]: ++ (++ is 30-60%) | EC50 [4]: < 1000 nM
SMILES: Cc1cccc(C)c1-c1cc2nc(n1)NS(=O)(=O)c1cccc(c1)C(=O)N1C[C@@H](CN(C(=O)OC(C)(C)C)C[C@@H]1C(C)C)O2 [Compound 132, tert-Butyl (16S,20S)-12-(2,6-dimethylphenyl)-2,8,8-trioxo-20-(propan-2-yl)-15-oxa-8λ^6-thia-1,9,11,18,22-pentaazatetracyclo[14.4.1.13,7.110,14]tricosa-3(23),4,6,10(22),11,13-hexaene-18-carboxylate]
ring closure, isolated yield ([1]; from Cc1cccc(C)c1-c1cc(Cl)nc(NS(=O)(=O)c2cccc(C(=O)N3C[C@H](O)CN(C(=O)OC(C)(C)C)C[C@@H]3C(C)C)c2)n1, snar bond, NaH, 29.4 mM, 3.17 h): 46%

Ent. A Max Activity (%) [4]: ++ (++ is 30-60%) | EC50 [4]: < 1000 nM
SMILES: Cc1cccc(C)c1-c1cc2nc(n1)NS(=O)(=O)c1cccc(c1)C(=O)N1C[C@@H](CN(C(=O)OC(C)(C)C)C[C@@H]1CC(C)(C)C)O2 [Compound 134, tert-Butyl (16S,20S)-12-(2,6-dimethylphenyl)-20-(2,2-dimethylpropyl)-2,8,8-trioxo-15-oxa-8λ^6-thia-1,9,11,18,22-pentaazatetracyclo[14.4.1.13,7.110,14]tricosa-3(23),4,6,10(22),11,13-hexaene-18-carboxylate]
ring closure, isolated yield ([1]; from Cc1cccc(C)c1-c1cc(O[C@H]2CN[C@@H](CC(C)(C)C)CN(C(=O)OC(C)(C)C)C2)nc(NS(=O)(=O)c2cccc(C(=O)O)c2)n1, amide bond, HATU/DIEA, 29.2 mM, 25.0 °C, 0.33 h): 57%

Ent. A Max Activity (%) [4]: +++ (+++ is >600%) | EC50 [4]: < 1000 nM
SMILES: Cc1cccc(C)c1-c1cc2nc(n1)NS(=O)(=O)c1cccc(c1)C(=O)N1CC3CN(Cc4ccccc4)CC3(C1)O2 (stereo not shown) [Compound 210, 20-Benzyl-5-(2,6-dimethylphenyl)-2-oxa-9λ^6-thia-6,8,16,20,24-pentaazapentacyclo[14.5.1.13,7.110,14.01,18]tetracosa-3(24),4,6,10,12,14(23)-hexaene-9,9,15-trione]
ring closure, isolated yield ([1]; from Cc1cccc(C)c1-c1cc(Cl)nc(NS(=O)(=O)c2cccc(C(=O)N3CC4CN(Cc5ccccc5)CC4(O)C3)c2)n1, snar bond, NaH, 33.1 mM, 25.0 °C, 24.0 h): 26%

Ent. B Max Activity (%) [3]: +++ (+++ is >600%) | EC50 [3]: < 1000 nM
SMILES: Cc1cccc(C)c1-c1cc2nc(n1)NS(=O)(=O)c1cccc(c1)C(=O)N1C[C@@H](CCC1CC(C)C)O2 (stereo partly drawn) [Compound 234, (3R)-18-(2,6-Dimethylphenyl)-6-(2-methylpropyl)-2-oxa-14λ^6-thia-7,15,17,20-tetraazatetracyclo[14.3.1.13,7.19,13]docosa-1(20),9(21),10,12,16,18-hexaene-8,14,14-trione]
ring closure, isolated yield ([1]; from Cc1cccc(C)c1-c1cc(Cl)nc(NS(=O)(=O)c2cccc(C(=O)N3C[C@H](O)CCC3CC(C)C)c2)n1, snar bond, NaH, 11.6 mM, 25.0 °C, 16.0 h): 38%
